Results: paper PMC7316778 (Nature Communications, 2020)
Several values for one entry are separate records, joined by “and”; a condition that tells them apart may be missing. Equal values may be shown once. Read-outs that look alike come from different tables or passages of the source.

Columns and labels:
Test in all cases: SelectScreen kinase assay
MST1R (RON) = MST1R (RON) (Homo sapiens, UniProt Q04912)
Experimental: (§1) Selectivity profiling assays were performed by the Invitrogen SelectScreen™ Services. […] The concentration of ATP was selected to be equal to the KM, unless indicated otherwise.

MAPKAPK5 (PRAK) = target: T1, MAPKAPK5 (PRAK) (Homo sapiens, UniProt Q8IW41)
T1 sequence (Q8IW41 1-473): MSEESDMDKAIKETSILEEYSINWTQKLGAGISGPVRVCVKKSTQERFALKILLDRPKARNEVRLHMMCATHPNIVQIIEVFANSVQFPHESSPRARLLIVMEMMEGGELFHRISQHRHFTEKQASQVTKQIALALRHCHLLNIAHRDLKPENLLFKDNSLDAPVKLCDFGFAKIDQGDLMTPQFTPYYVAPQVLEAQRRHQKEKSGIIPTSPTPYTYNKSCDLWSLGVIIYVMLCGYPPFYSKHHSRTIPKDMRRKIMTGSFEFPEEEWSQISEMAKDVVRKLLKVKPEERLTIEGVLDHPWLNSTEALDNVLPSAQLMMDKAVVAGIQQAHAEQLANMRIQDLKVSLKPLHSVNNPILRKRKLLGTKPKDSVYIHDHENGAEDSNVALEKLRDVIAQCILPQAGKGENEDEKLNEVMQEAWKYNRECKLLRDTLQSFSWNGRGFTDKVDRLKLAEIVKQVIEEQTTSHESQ
Experimental: as §1

BTK = BTK (Homo sapiens, UniProt Q06187)
Experimental: as §1

PRKCG (PKC gamma) = PRKCG (PKC gamma) (Homo sapiens, UniProt P05129); conditions: for Inhibition at 1 µM (%): PRKCG (PKC gamma), ZLYTE, ATP Km app
Experimental: as §1

CDK18/cyclin Y = CDK18/cyclin Y (Homo sapiens, UniProt Q07002); conditions: for Inhibition at 1 µM (%): CDK18/cyclin Y, ZLYTE, ATP Km app
Experimental: as §1

FRAP1 (mTOR) = FRAP1 (mTOR) (Homo sapiens, UniProt P42345)
Experimental: as §1

STK16 (PKL12) = STK16 (PKL12) (Homo sapiens, UniProt O75716)
Experimental: as §1

MLCK (MLCK2) = target: T2, MLCK (MLCK2) (Homo sapiens, UniProt Q32MK0)
T2 sequence (Q32MK0 1-819): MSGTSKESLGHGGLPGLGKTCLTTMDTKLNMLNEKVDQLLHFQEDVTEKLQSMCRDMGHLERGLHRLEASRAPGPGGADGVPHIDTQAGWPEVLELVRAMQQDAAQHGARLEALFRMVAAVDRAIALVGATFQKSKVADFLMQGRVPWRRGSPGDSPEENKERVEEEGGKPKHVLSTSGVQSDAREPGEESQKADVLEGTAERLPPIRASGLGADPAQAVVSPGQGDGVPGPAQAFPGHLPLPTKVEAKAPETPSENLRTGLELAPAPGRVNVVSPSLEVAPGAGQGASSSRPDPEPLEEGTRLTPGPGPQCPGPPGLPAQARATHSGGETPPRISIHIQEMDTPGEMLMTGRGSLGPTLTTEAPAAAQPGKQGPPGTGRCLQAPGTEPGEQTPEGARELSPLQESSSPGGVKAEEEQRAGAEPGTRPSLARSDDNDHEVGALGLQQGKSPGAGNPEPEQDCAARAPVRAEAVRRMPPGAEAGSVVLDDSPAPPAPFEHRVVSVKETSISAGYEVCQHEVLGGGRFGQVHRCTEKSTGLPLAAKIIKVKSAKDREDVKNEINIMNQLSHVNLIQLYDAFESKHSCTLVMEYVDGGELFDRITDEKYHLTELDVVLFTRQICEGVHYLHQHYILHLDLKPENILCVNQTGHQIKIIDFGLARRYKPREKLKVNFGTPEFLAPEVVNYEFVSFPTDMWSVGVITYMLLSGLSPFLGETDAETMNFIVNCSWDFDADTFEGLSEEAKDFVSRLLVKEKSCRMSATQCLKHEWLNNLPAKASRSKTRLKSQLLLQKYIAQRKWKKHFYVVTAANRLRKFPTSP
Experimental: as §1

HIPK4 = target: T3, HIPK4 (Homo sapiens, UniProt Q8NE63)
T3 sequence (Q8NE63 1-616): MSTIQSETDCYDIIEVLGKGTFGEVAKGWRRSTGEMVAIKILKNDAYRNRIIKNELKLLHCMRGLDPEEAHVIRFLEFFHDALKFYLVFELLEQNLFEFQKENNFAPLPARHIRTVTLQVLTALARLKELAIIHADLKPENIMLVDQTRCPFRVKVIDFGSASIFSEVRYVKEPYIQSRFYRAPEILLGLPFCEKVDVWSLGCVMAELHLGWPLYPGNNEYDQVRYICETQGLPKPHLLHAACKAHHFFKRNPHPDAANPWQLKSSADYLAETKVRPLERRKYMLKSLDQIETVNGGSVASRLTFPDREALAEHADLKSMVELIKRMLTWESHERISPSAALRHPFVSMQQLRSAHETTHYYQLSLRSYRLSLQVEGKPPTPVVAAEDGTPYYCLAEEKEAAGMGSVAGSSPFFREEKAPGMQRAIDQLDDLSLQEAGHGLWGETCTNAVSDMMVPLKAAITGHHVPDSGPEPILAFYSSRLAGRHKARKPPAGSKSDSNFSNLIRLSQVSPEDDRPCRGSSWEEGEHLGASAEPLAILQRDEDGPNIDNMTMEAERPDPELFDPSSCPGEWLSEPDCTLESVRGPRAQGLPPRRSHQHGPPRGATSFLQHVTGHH
Experimental: as §1

GRK5 = GRK5 (Homo sapiens, UniProt P34947)
Experimental: as §1

[1] = 1 h, 1 μM WEL028, 1 h preincubation

MST1R (RON), sequence (Q04912 25-1400): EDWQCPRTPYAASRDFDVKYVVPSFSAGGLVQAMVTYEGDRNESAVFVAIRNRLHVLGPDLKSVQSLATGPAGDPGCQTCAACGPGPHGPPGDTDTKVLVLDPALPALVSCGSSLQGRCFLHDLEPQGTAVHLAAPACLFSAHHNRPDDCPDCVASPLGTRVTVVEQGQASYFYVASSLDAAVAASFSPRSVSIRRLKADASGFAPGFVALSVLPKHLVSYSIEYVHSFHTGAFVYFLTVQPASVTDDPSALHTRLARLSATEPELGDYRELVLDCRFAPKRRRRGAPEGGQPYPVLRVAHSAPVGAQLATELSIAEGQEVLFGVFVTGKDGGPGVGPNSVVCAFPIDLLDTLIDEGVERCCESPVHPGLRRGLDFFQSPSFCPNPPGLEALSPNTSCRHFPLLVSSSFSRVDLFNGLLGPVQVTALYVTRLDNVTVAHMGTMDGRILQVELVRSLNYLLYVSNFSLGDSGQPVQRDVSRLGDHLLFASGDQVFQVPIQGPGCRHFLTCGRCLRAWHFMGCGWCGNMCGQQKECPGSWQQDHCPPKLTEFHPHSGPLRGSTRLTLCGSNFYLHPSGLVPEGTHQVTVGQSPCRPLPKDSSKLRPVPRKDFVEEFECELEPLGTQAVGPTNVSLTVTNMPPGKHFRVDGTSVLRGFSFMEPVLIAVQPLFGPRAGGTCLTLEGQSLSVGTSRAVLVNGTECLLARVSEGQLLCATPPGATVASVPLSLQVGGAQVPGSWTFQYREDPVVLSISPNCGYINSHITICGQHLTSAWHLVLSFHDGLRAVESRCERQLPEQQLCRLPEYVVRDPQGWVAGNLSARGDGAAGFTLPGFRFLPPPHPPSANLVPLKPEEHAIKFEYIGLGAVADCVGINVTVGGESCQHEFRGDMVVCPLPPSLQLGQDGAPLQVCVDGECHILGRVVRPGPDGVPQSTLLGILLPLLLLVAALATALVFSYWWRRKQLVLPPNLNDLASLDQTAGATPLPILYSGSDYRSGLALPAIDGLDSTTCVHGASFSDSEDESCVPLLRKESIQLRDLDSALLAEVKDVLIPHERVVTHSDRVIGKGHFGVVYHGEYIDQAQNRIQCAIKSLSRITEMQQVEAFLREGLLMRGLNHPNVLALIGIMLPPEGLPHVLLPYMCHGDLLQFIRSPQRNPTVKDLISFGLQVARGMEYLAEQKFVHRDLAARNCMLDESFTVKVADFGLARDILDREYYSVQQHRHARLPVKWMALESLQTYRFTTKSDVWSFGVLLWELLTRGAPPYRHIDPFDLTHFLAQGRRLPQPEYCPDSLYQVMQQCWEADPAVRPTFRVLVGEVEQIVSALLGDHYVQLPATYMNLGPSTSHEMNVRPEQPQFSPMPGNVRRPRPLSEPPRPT
STK16 (PKL12), sequence (O75716 whole entry): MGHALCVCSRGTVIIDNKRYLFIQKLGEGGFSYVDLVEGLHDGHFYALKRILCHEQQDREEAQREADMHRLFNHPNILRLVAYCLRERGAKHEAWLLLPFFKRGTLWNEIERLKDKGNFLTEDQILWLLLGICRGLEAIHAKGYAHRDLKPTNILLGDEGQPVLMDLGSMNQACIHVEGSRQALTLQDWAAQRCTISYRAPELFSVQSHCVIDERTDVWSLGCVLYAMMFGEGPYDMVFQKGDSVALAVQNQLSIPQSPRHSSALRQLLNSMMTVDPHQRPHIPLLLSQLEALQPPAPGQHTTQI
CDK18/cyclin Y, sequence (Q07002 whole entry): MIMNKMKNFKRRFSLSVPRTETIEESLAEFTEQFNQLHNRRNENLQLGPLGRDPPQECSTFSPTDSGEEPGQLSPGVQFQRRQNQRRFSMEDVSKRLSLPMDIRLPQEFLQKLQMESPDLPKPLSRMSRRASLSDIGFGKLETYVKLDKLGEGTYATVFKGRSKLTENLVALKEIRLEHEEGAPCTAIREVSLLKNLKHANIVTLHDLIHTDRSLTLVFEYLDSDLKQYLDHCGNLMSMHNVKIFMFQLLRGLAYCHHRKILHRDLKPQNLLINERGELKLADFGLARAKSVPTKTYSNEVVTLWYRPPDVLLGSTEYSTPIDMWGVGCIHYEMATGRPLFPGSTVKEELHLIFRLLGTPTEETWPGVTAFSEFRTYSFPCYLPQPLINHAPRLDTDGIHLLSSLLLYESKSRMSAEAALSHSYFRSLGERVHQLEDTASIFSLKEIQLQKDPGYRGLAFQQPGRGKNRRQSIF
CDK18/cyclin Y, sequence (Q8ND76 whole entry partner): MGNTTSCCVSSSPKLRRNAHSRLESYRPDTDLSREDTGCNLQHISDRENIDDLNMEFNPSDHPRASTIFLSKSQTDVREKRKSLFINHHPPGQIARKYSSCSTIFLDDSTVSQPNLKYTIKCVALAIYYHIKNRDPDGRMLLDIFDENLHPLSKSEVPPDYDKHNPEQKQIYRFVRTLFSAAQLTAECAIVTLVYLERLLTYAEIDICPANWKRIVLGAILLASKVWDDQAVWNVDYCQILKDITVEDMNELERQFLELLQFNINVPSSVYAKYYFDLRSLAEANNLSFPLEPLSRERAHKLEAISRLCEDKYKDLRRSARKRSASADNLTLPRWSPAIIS
BTK, sequence (Q06187 whole entry): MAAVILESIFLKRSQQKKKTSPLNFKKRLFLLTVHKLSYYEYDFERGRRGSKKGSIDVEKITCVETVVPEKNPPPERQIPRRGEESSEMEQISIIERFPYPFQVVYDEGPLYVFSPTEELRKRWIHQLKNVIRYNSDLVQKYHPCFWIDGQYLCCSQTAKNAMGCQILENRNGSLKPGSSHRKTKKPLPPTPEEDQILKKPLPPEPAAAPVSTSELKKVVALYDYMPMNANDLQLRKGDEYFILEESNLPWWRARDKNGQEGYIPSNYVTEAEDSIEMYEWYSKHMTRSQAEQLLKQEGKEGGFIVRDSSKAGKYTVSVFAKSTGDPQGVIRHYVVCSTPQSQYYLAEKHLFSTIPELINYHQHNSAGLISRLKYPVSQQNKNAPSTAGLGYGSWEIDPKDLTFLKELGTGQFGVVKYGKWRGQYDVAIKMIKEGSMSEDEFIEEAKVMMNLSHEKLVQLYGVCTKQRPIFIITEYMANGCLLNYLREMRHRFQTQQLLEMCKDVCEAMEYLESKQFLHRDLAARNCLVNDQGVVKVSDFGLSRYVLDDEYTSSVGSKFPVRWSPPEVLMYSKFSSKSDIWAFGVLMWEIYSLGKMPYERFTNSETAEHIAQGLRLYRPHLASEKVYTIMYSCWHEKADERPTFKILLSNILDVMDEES
GRK5, sequence (P34947 whole entry): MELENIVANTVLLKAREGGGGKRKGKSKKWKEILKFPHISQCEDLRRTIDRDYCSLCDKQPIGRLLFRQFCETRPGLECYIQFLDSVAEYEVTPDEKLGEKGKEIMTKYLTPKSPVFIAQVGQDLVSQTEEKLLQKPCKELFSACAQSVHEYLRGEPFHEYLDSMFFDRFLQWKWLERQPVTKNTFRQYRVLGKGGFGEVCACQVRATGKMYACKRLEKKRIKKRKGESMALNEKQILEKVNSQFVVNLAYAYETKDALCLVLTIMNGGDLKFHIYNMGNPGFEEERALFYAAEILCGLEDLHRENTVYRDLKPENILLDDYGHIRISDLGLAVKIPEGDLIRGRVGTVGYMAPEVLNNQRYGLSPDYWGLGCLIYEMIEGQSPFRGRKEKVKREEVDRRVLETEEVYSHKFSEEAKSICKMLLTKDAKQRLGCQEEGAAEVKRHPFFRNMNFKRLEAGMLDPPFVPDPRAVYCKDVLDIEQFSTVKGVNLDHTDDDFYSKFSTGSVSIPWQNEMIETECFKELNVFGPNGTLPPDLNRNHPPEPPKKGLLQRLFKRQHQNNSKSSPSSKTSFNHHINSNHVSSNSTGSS

## C#CCOc1ccc(Nc2ncc(Cl)c(Nc3ccccc3NC(=O)C=C)n2)c(OC)c1 [Compound 6]
MST1R (RON); [1]
  inhibition at 1 µM: 5%
MST1R (RON); MST1R (RON), 1 µM, ZLYTE, ATP Km app, listed as WEL028, 1 µM
  Inhibition at 1 µM (%): 10% and 0%
MAPKAPK5 (PRAK)
  IC50: 501 nM
MAPKAPK5 (PRAK); [1]
  inhibition at 1 µM: 66%
MAPKAPK5 (PRAK); 1 h, log[inhibitor] (M) -5.00, ZLYTE, ATP Km app
  inhibition at 10 µM: 95%
MAPKAPK5 (PRAK); 1 h, log[inhibitor] (M) -5.48, ZLYTE, ATP Km app
  inhibition at 3.31 µM: 94%
MAPKAPK5 (PRAK); 1 h, log[inhibitor] (M) -5.95, ZLYTE, ATP Km app
  inhibition at 1.12 µM: 76%
MAPKAPK5 (PRAK); 1 h, log[inhibitor] (M) -6.43, ZLYTE, ATP Km app
  inhibition at 0.372 µM: 36%
MAPKAPK5 (PRAK); 1 h, log[inhibitor] (M) -7.39, ZLYTE, ATP Km app
  inhibition at 0.04074 µM: 13%
MAPKAPK5 (PRAK); 1 h, log[inhibitor] (M) -[…], ZLYTE, ATP Km app
  inhibition at 0.004571 µM: 4%
MAPKAPK5 (PRAK); IC50 on that kinase divided by IC50 on FES^S700C
  Apparent fold selectivity: 112 fold
MAPKAPK5 (PRAK); MAPKAPK5 (PRAK), 1 µM, ZLYTE, ATP Km app, listed as WEL028, 1 µM
  Inhibition at 1 µM (%): 70%
MAPKAPK5 (PRAK); read-out: Inhibition at 1 µM (%), MAPKAPK5 (PRAK), 1 µM, ZLYTE, ATP Km app
  inhibition at 1 µM: 62%
BTK; 1 μM WEL028, 1 h preincubation
  Inhibition (%): 11%
BTK; BTK, 1 µM, ZLYTE, ATP Km app
  Inhibition at 1 µM (%): 17%
PRKCG (PKC gamma); [1]
  inhibition at 1 µM: 1%
PRKCG (PKC gamma)
  Inhibition at 1 µM (%): -3%
PRKCG (PKC gamma); listed as WEL028, 1 µM
  Inhibition at 1 µM (%): 5%
CDK18/cyclin Y; [1]
  inhibition at 1 µM: 1%
CDK18/cyclin Y
  Inhibition at 1 µM (%): 3%
CDK18/cyclin Y; listed as WEL028, 1 µM
  Inhibition at 1 µM (%): -1%
FRAP1 (mTOR); [1]
  inhibition at 1 µM: 11%
FRAP1 (mTOR); FRAP1 (mTOR), 1 µM, ZLYTE, ATP Km app
  Inhibition at 1 µM (%): 19%
STK16 (PKL12); 1 µM, LanthaScreen Binding, listed as WEL028, 1 µM
  Inhibition at 1 µM (%): 29%
STK16 (PKL12); [1]
  inhibition at 1 µM: 32%
STK16 (PKL12); read-out: Inhibition at 1 µM (%), 1 µM, LanthaScreen Binding
  inhibition at 1 µM: 35%
MLCK (MLCK2); [1]
  inhibition at 1 µM: 9%
MLCK (MLCK2); MLCK (MLCK2), 1 µM, LanthaScreen Binding, listed as WEL028, 1 µM
  Inhibition at 1 µM (%): 8%
MLCK (MLCK2); read-out: Inhibition at 1 µM (%), MLCK (MLCK2), 1 µM, LanthaScreen Binding
  inhibition at 1 µM: 9%
HIPK4; [1]
  inhibition at 1 µM: 14%
HIPK4; HIPK4, 1 µM, ZLYTE, ATP Km app, listed as WEL028, 1 µM
  Inhibition at 1 µM (%): 16%
HIPK4; read-out: Inhibition at 1 µM (%), HIPK4, 1 µM, ZLYTE, ATP Km app
  inhibition at 1 µM: 12%
GRK5; 1 h
  inhibition at 1 µM: 4%
GRK5; read-out: Inhibition at 1 µM (%)
  inhibition at 1 µM: 4%
